Experimental data as given in patent US20120196858A1, “METHOD OF PROMOTING APOPTOSIS AND INHIBITING METASTASIS” (Poniard Pharmaceuticals ,Inc., priority 2009, published 2012).
Where two headings read alike, the source gives them in different places.

Legend:
[1] = Pharmacokinetic (PK) evaluation in mice; assay type: in vivo, Balb/c mice
Protocol: Blood samples were collected via terminal heart puncture at 0.5, 1, 2, 4, 8, 12, 24 and 48 h for p.o. administration and 0.083, 0.25, 0.5, 1, 2, 4, 8, 12, 24 and 48 h for i.p. and i.v. administration. 3 mice per time point were used. For ad libitum administration, blood samples were collected after 7 days using five mice per group. Samples were collected in tubes containing 0.05 ml 0.5 M EDTA, centrifuged at 900×g for 15 min at room temperature, and the plasma collected. PND-1186 content was determined by high-performance liquid chromatography (HPLC) and mass spectroscopy analyses (see Supplemental Methods).

[2] = system: 4T1 cells; test: Soft agar colony growth and apoptosis assay; assay type: cell-based, murine
Protocol: Anchorage-dependent, spheroid, and soft agar cell growth assays: Cells (2×10^5) were plated per 35 mm well under adherent (tissue culture-treated) and non-adherent conditions (poly-HEMA-coated) in 6-well plates (Costar) in growth media. Between 24 and 168 h, all cells were collected, a single cell suspension was prepared by limited trypsin-EDTA treatment, and viable cells were enumerated by trypan blue staining and counting (ViCell XR, Beckman). For spheroid area determination, cells were imaged after 72 h in phase contrast using an Olympus IX51 microscope. Area was calculated using Image J software (version 1.43). For soft agar assays, 48-well plates were coated with a 1:4 mix of 2% agar (EM Science) in 0.2 ml growth media (bottom layer). 5×10^4 cells were plated per well (in triplicate) in a mixture of 0.3% agar in 0.2 ml growth media (top layer). […] After 10 days, colonies were imaged in phase contrast, enumerated by counting 9 fields (3 fields per well), and total area determined using Image J. For all analyses, experimental points were performed in triplicate and were experiments were repeated at least two times.
Cell pellets were resuspended in 300 p. 1 of PBS containing propidium iodide (PI) (10 μg/ml), DNAse-free RNAse (100 μg/ml, Qiagen), and then incubated at 37° C. with agitation for 1 h. Samples were analyzed by flow cytometry (FACSCalibur, Becton-Dickinson) and cell cycle analyses were performed by ModFit LT3.2 software (Verity software house). Hypodiploid DNA content as a measure of cell apoptosis was detected by PI staining as described ^29. […] Quadrant gates were positioned based on cell autofluorescence (negative) staurosporine-treated (positive) controls. Apoptosis was calculated to be the percent of annexin V-positive cells. In the soft agar assays, apoptosis was quantified by visual inspection of at least 200 cells and was defined as the appearance of membrane blebbing or cell shrinkage. Apoptosis was also detected by appearance of cleaved caspase-3 antibody reactivity in protein lysates by immunoblotting.

[3] = system: ID8 ovarian carcinoma cells; test: Intraperitoneal ID8 ovarian carcinoma tumor growth in C57Bl6 mice; assay type: in vivo, C57B16 mice
Protocol: Mouse tumor studies: Six to eight week old female C57B16 and BALB/c mice were obtained from Harlan Laboratories (Indianapolis, Ind.) and housed in pathogen-free conditions, according to the guidelines of the Association for the Assessment and Accreditation for Laboratory Animal Care, International. All in vivo studies were carried out under an approved institutional experimental animal care and use protocol. Growing tumor cells were harvested by limited trypsinization, washed in PBS, and counted using a ViCell XR (Beckman) prior to injection. Cell viability as measured by trypan blue exclusion was >95%. For subcutaneous tumor growth, 1×10^6 mCherry-labeled 4T1 cells in 100 μl PBS were injected into the hindflank of Balb/C mice. […] Control animals received PEG400:PBS injections and at 13 days, tumors were imaged in situ using an Olympus OV100 Intravital Fluorescence Molecular Imaging System, tumors were excised and weighed, half was frozen in OCT, and half was solubilized in protein lysis buffer for FAK phosphorylation analyses. For ID8 ovarian carcinoma tumor growth, 0.8 mL of 1×10^7 ID8 cells in PBS was intraperitoneal injected into C57B16 mice. […] Administration continued ad libitum for 30 days after which mice were euthanized, ascites fluid collected, cells obtained by centrifugation (2000 rpm for 5 min), cell volume measured by pipet, and then solubilized in protein lysis buffer for immunoblotting analyses.

[4] = Pharmacodynamic (PD) evaluation in subcutaneous 4T1 tumors, single i.p. injection; assay type: in vivo, Balb/c mice; conditions: Balb/c, mouse, intraperitoneal, 100 mg/kg i.p., 12 h
[5] = target: T1, FAK Tyr-397 phosphorylation (Homo sapiens, UniProt Q05397); test: Anti-phospho-specific immunoblotting of FAK Tyr-397 in human breast carcinoma cells; assay type: cell-based
T1 construct: endogenous in cells; host or cells: MDA-MB-231 human breast carcinoma cells
T1 sequence (Q05397 whole entry): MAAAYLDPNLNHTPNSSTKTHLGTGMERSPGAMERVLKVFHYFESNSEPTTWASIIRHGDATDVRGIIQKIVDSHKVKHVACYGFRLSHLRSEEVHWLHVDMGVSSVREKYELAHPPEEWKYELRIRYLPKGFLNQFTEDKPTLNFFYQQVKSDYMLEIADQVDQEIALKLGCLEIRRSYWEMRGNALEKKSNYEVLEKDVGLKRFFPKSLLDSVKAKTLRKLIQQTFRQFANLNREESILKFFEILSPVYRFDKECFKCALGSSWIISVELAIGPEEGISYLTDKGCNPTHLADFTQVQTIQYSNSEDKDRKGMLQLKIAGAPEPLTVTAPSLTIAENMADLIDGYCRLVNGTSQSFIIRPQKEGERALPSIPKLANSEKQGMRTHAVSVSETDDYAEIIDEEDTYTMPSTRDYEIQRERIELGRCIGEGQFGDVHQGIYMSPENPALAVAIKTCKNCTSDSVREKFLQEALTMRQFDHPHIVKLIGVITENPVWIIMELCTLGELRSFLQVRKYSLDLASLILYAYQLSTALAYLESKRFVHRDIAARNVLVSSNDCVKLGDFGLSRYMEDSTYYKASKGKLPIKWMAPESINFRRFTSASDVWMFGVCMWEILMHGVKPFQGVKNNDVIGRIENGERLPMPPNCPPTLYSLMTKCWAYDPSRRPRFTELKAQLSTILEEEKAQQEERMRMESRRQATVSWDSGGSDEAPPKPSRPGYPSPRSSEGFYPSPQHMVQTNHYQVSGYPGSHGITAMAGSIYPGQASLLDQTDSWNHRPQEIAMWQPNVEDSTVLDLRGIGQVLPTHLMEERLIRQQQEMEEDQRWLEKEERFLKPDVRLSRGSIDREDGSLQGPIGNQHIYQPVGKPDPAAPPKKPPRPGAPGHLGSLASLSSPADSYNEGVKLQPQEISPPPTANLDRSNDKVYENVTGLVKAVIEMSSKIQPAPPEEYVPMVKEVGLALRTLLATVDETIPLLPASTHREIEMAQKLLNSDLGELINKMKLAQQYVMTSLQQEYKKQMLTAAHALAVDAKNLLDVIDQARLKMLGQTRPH
Source text: (§1) Immunoblotting: Protein extracts of cells were made using lysis buffer containing 1% Triton X-100, 1% sodium deoxycholate, and 0.1% SDS and were separated by 4-12% SDS-PAGE (sodium dodecyl sulfate polyacrylamide gel electrophoresis) and sequential immunoblotting performed as described in Mitra S K, Lim S T, Chi A, Schlaepfer D D. Intrinsic focal adhesion kinase activity controls orthotopic breast carcinoma metastasis via the regulation of urokinase plasminogen activator expression in a syngeneic tumor model. Oncogene 2006; 25:4429-40. Relative expression levels and phospho-specific antibody reactivity were measured by densitometry analyses of blots using Image J (version 1.42q). Inhibition of FAK and p130Cas tyrosine phosphorylation was quantified by calculating the ratio of pY397 FAK protein to total FAK. Similar analyses were performed for p130Cas using pY410 p130Cas and total p130Cas blot data.

[6] = system: caspase 3 cleavage in 4T1 cells; test: Cleaved caspase 3 immunoblotting of cell lysates; assay type: cell-based, murine; conditions: 24 h
Source text: as §1, with “Similar analyses were performed for p130Cas using pY410 p130Cas and total p130Cas blot data.” left out
Cell pellets were resuspended in 300 p. […] Samples were analyzed by flow cytometry (FACSCalibur, Becton-Dickinson) and cell cycle analyses were performed by ModFit LT3.2 software (Verity software house). Hypodiploid DNA content as a measure of cell apoptosis was detected by PI staining as described ^29. […] Apoptosis was calculated to be the percent of annexin V-positive cells. In the soft agar assays, apoptosis was quantified by visual inspection of at least 200 cells and was defined as the appearance of membrane blebbing or cell shrinkage. […]

[7] = 0.5 mg/ml ad libitum, 30 treatment days

## CNC(=O)c1ccccc1Nc1cc(Nc2ccc(N3CCOCC3)cc2OC)ncc1C(F)(F)F [PND-1186]
[1]; 0.5 mg/ml ad libitum, mice
  CSS: 1.16 µM
[1]; 2 mg/kg i.v., mice
  AUC(0-inf): 6,960 ng · h/mL
  Cl: 4.78 mL/min/kg
  Vd: 0.714 L/kg
  t1/2: 1.72 h
[1]; 30 mg/kg i.p., mice
  AUC(0-inf): 32,500 ng · h/mL
  Cmax: 34.8 µM
  TMAX: 0.25 h
  t1/2: 2.27 h
[1]; 100 mg/kg i.p., mice
  AUC(0-inf): 147,000 ng · h/mL
  Cmax: 117 µM
  TMAX: 0.50 h
  t1/2: 2.65 h
[1]; 150 mg/kg oral, by 4 h
  maximal plasma level: ~14 µM
[1]; 150 mg/kg oral, for 12 h
  sustained plasma level: above 3 μM
[1]; 150 mg/kg p.o., mice
  AUC(0-inf): 77,400 ng · h/mL
  Cmax: 14 µM
  TMAX: 4.00 h
  t1/2: 2.15 h
[1]; Balb/c, mouse, plasma, oral, 0.5 mg/kg, 0.5 mg/ml ad libitum, mice, read-out: AUC(0-inf)
  AUC(0-inf): 13.1 ng·h/mL
[1]; i.p. and p.o. dosing
  bioavailability (% F): 14.8 to 42.2%
  terminal half lives (t1/2): 2.15 to 2.65 h
[1]; mouse, in vivo
  dose dependence of plasma concentrations, Cmax and AUC(0-inf): increased in a linear fashion as a function of dose
[2]; 0.2 μM, soft agar
  4T1 cell apoptosis (membrane blebbing and cell shrinkage): > 50%
[2]; 10 days, dose-dependent
  total number and size of soft agar colonies: inhibited both the total number and size
[2]; Mus musculus, 4T1, 240 h, 0.2 μM, 10 days, read-out: inhibition of soft agar colony size
  inhibition at 0.2 µM: 77%
[3]; 0.5 mg/ml ad libitum vs 5% sucrose
  inhibition of FAK pY397 in ascites cells: > 2 fold
[3]; [7]
  ascites-associated cells: lower number of ascites-associated cells
  swollen abdomens: did not exhibit swollen abdomens
[3]; 0.5 mg/ml ad libitum, dsRed imaging
  tumor nodules within the peritoneal space: significantly fewer tumor nodules
[3]; 0.5 mg/ml in 5% sucrose ad libitum
  adverse effects and body weight: No adverse effects and no body weight loss
[3]; 0.5 mg/ml in drinking water of mice, tumor model not named at the place
  tumor burden, caspase 3 cleavage, tumor TUNEL staining: decreased tumor burden, increased caspase 3 cleavage, and elevated tumor TUNEL staining
[4]; plasma, read-out: average concentration in plasma at 12 h
  concentration at 12 h: 15.1 µM
[4]; tumor, read-out: average concentration in tumors at 12 h
  concentration at 12 h: 10400 ng/g
[5]
  IC50: ~100 nM
[6]
  cleaved caspase 3, adherent cells: not detectable
  cleaved caspase 3, suspended cells: increased in PND-1186-treated suspended cells (maximal at 0.4 μM)
